Source: patent US8273542B2 (priority 2005, dated 2012)
Like-named read-outs stand apart in the source and are kept apart here.

How the values were obtained:
hT2R75 = target: T1, hT2R75 (Homo sapiens, UniProt P59540); assay type: cell-based
T1 construct: expressed in transfected cells; host or cells: HEK293 cells stably expressing large T antigen and G16gust44, transiently transfected
T1 sequence (P59540 1-309): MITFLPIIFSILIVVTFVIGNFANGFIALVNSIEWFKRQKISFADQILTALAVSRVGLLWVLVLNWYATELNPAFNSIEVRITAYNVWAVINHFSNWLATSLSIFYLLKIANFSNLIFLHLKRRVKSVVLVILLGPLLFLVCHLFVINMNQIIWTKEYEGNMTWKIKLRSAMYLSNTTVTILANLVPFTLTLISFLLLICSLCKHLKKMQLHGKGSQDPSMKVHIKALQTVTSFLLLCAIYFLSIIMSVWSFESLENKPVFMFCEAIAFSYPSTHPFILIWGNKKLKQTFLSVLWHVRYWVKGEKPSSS
Method: (§1) More particularly, the present inventors transfected HEK293 cells with a particular hT2R together with a chimeric G protein (G16 gust 44) which comprises the […] G protein sequence modified by the replacement of carboxy-44 amino acid residues with those of gustducin, and recorded responses of these cells to specific bitter ligands by calcium imaging methods.
(§2) Activation of these receptors by ranitidine is measured in a cell-based assay detecting changes in intracellular calcium concentration. In brief, human embryonic kidney cells stably expressing the large […] and a chimeric G protein (G16gust44) are transiently transfected with the a plasmid containing a particular hT2R54 nucleic acid sequence either by Ca^2+ phosphate or lipid-based systems. Transiently transfected cells are seeded into 24 well culture plates, and functional expression allowed to proceed for a total of 48 hours. The cells are then incubated with a fluorescent dye specific for calcium (Fluo-4 or Fura-2; Molecular Probes) that provides a fast, simple and reliable fluorescence-based method for detecting changes in calcium concentration inside the cell. Addition of ranitidine to cells elicits a signaling cascade leading to the activation of PLC and a subsequent increase in intracellular calcium concentration. This increase in calcium concentration changes the fluorescence properties of the calcium dye inside the cells. These changes are monitored using fluorescence microscopy and a specific design software (Imaging Workbench, Axon).
(§3) Activation of these receptors by denatonium benzoate is measured in a cell-based assay detecting changes in intracellular calcium concentration. […] The cells are then incubated with a fluorescent dye specific for calcium (Fluo-4 or Fura-2; Molecular Probes) that provides a fast, simple and reliable fluorescence-based method for detecting changes in calcium concentration inside the cell. […] This increase in calcium concentration changes the fluorescence properties of the calcium dye inside the cells. These changes are monitored using fluorescence microscopy and specific design software (Imaging Workbench, Axon).
as §3, with “receptors by strychnine is measured” for “receptors by denatonium benzoate is measured”, “microscopy and a specific design” for “microscopy and specific design”

hT2R8 [1] = target: T2, hT2R8 (Homo sapiens, UniProt Q9NYW2); assay type: cell-based
T2 construct: expressed in transfected cells; host or cells: HEK293 cells stably expressing large T antigen and chimeric G protein G16gust44; Transfection was transient for imaging
T2 sequence (Q9NYW2 1-309): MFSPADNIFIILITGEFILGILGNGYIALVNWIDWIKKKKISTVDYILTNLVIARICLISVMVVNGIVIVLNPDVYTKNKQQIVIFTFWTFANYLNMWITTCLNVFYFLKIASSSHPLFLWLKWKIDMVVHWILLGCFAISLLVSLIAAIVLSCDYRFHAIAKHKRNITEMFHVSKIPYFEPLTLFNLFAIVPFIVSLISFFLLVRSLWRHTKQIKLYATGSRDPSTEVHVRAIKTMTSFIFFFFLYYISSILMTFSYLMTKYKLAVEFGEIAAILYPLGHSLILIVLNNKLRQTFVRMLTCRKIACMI
Method: as §1, §2, §3
as §3, with “receptors by strychnine is measured” for “receptors by denatonium benzoate is measured”, “microscopy and a specific design” for “microscopy and specific design”

hT2R54 [2] = target: T3, hT2R54 (Homo sapiens, UniProt P59534); assay type: cell-based
T3 construct: expressed in transfected cells; host or cells: HEK293 cells stably expressing large T antigen and G16gust44; Transfection was transient for imaging
T3 sequence (P59534 18-338): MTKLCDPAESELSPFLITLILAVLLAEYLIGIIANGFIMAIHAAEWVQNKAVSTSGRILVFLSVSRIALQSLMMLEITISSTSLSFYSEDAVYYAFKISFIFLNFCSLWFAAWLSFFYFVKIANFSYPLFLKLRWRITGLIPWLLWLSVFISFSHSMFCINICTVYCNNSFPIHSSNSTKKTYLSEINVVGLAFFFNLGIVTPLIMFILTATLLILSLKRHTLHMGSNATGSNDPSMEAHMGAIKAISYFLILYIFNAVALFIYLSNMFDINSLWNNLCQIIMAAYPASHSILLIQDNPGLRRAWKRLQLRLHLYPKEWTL
Method: as §1, §2
Transiently transfected cells are seeded into 24 well culture plates, and functional expression allowed to proceed for a total of 48 hours. The cells are then incubated with a fluorescent dye specific for calcium (Fluo-4 or Fura-2; Molecular Probes) that provides a fast, simple and reliable fluorescence-based method for detecting changes in calcium concentration inside the cell. […] This increase in calcium concentration changes the fluorescence properties of the calcium dye inside the cells. These changes are monitored using fluorescence microscopy and specific design software (Imaging Workbench, Axon).
as §3

mT2R5 = target: T4, mT2R5 (Mus musculus, UniProt Q9JKT4); conditions: Chandrashekar et al. 2000; cited from earlier work
T4 construct: host or cells: insect Sf9 cells
T4 sequence (Q9JKT4 1-300): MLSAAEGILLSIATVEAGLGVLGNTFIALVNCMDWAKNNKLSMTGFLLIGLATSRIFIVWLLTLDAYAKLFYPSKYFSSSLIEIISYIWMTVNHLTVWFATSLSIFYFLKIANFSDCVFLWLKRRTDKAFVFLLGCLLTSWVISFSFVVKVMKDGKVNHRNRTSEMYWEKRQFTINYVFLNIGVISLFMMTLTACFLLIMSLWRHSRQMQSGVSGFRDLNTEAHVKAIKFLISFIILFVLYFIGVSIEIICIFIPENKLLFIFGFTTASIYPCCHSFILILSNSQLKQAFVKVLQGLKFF

[3] = taste detection threshold; assay type: in vivo, humans
hT2R54 [4] = target: T3, hT2R54; assay: dose response, stable HEK-G16gust44 line, calcium dye, FLIPR or VIPR; assay type: cell-based; conditions: for dose response of hT2R54: stable HEK-G16gust44 line
Method: (§4) A HEK-G16gust44 line stably expressing high levels of hT2R8 or hT2R54 on its cell surface is used in high throughput screening assays. In this platform, the cells are seeded into 96 well or 384 well culture plates 18-24 hours before the assay. The cells are then incubated with the fluorescent calcium sensitive dye (Molecular Devices) and are stimulated and read in a standard fluorescence intensity plate reader (FLIPR or VIPR). Using this approach we have been able to further characterize the ranitidine effect on hT2R8 and hT2R54.
as §4, with “HEK-G16gust44 cell” for “HEK-G16gust44”, “of” for “of hT2R8 or”, “acetaminophen” for “ranitidine”, “on” for “on hT2R8 and”

hT2R10 = target: T5, hT2R10 (Homo sapiens, UniProt Q9NYW0); assay type: cell-based; conditions: concentration not given
T5 construct: expressed in transfected cells; host or cells: HEK293 cells stably expressing large T antigen and G16gust44, transiently transfected
T5 sequence (Q9NYW0 1-307): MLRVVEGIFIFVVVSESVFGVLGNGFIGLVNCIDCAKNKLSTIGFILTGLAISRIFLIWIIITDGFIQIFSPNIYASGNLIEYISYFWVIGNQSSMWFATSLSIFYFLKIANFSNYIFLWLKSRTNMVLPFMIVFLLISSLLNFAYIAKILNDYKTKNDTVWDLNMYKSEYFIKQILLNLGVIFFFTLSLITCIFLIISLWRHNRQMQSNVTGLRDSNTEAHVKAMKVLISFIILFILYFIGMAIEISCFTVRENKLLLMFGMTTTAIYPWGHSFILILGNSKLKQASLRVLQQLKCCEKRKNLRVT
Method: as §1, §3
Activation of these receptors by strychnine is measured in a cell-based assay detecting changes in intracellular calcium concentration. […] The cells are then incubated with a fluorescent dye specific for calcium (Fluo-4 or Fura-2; Molecular Probes) that provides a fast, simple and reliable fluorescence-based method for detecting changes in calcium concentration inside the cell. […]

hT2R13 = target: T6, hT2R13 (Homo sapiens, UniProt Q9NYV9); assay type: cell-based; conditions: concentration not given
T6 construct: expressed in transfected cells; host or cells: HEK293 cells stably expressing large T antigen and G16gust44, transiently transfected
T6 sequence (Q9NYV9 1-303): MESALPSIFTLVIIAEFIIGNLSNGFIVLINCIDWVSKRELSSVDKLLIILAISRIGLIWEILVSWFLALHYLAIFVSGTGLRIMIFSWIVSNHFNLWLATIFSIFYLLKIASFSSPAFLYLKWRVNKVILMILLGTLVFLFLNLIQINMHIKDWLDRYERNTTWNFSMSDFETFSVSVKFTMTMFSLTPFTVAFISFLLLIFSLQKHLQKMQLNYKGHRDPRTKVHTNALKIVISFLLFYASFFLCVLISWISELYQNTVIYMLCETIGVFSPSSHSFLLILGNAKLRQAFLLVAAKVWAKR
Method: as §1
as §2, with “receptors by denatonium benzoate is measured” for “receptors by ranitidine is measured”, “a particular hT2R nucleic acid” for “a particular hT2R54 nucleic acid”, “the cell. […] This increase” for “the cell. Addition of ranitidine to cells elicits a signaling cascade leading to the activation of PLC and a subsequent increase in intracellular calcium concentration. This increase”, “microscopy and specific design” for “microscopy and a specific design”

hT2R61 = target: T7, hT2R61 (Homo sapiens, UniProt P59537, H212R/W35S); assay type: cell-based; conditions: concentration not given
T7 construct: expressed in transfected cells; host or cells: HEK293 cells stably expressing large T antigen and G16gust44, transiently transfected
T7 sequence (P59537 1-309 W35S/H212R): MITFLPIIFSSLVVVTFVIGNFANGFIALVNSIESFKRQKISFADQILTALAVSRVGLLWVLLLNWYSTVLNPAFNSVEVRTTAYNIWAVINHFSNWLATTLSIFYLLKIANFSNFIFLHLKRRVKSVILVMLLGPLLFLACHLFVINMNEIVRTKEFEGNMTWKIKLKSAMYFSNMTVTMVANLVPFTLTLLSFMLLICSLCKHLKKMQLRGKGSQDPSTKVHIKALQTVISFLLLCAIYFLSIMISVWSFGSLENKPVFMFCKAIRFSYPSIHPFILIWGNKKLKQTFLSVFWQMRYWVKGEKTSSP
Method: as §1
as §2, with “receptors by denatonium benzoate is measured” for “receptors by ranitidine is measured”, “a particular hT2R nucleic acid” for “a particular hT2R54 nucleic acid”, “the cell. […] This increase” for “the cell. Addition of ranitidine to cells elicits a signaling cascade leading to the activation of PLC and a subsequent increase in intracellular calcium concentration. This increase”, “microscopy and specific design” for “microscopy and a specific design”

hT2R8 [5] = target: T2, hT2R8; assay: dose response, stable HEK-G16gust44 line, calcium dye, FLIPR or VIPR; assay type: cell-based
Method: as §4
as §4, with “[…]” for “or hT2R54”, “VIPR).” for “VIPR). Using this approach we have been able to further characterize the ranitidine effect on hT2R8 and hT2R54.”

hT2R4 = target: T8, hT2R4 (Homo sapiens, UniProt Q9NYW5); conditions: Chandrashekar et al. 2000; cited from earlier work
T8 sequence (Q9NYW5 1-299): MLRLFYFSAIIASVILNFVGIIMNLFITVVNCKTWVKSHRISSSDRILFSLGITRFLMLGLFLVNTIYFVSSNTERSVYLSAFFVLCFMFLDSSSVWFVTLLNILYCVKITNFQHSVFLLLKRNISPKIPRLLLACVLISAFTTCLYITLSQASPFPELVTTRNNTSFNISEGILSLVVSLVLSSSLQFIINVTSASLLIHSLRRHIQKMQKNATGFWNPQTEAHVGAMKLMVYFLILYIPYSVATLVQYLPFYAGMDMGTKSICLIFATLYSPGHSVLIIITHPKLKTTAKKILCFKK

OC[C@H]1O[C@@](CO)(O[C@H]2O[C@H](CO)[C@@H](O)[C@H](O)[C@H]2O)[C@@H](O)[C@@H]1O [sucrose]
response of hT2R75 in calcium imaging (hT2R75; 10 μM): did not respond
response of hT2R8 in calcium imaging (hT2R8 [1]; 10 μM): did not respond
response of hT2R54 in calcium imaging (hT2R54 [2]; 10 μM): did not respond

OCc1ccccc1O[C@@H]1O[C@H](CO)[C@@H](O)[C@H](O)[C@H]1O [salicin]
response of hT2R54 in calcium imaging (hT2R54 [2]; 10 μM): does not respond

C[C@@H]1C[C@@H]([C@H](O)CC2CC(=O)NC(=O)C2)C(=O)[C@@H](C)C1 [cycloheximide]
gustducin activation by mT2R5 (mT2R5): occurs only in response to cycloheximide

CNC(=C[N+](=O)[O-])NCCSCc1ccc(CN(C)C)o1 [ranitidine]
taste detection threshold / bitter taste threshold for humans [3]: 78 µM

CC(=O)Nc1ccc(O)cc1 [acetaminophen]
response of hT2R54 in calcium imaging (hT2R54 [2]; 10 μM): responded specifically
EC50 (hT2R54 [4]): 1.83 µM
dose response of hT2R54 (hT2R54 [4]): typical dose-response relationship
taste detection threshold / bitter taste threshold for humans [3]: 1.25 µM

CC[N+](CC)(CC(=O)Nc1c(C)cccc1C)Cc1ccccc1 [denatonium benzoate]
response of hT2R75 in calcium imaging (hT2R75; concentration not given): respond specifically
response of hT2R8 in calcium imaging (hT2R8 [1]; concentration not given): respond specifically
response of hT2R10 in calcium imaging (hT2R10): respond specifically
response of hT2R54 in calcium imaging (hT2R54 [2]; concentration not given): respond specifically
response of hT2R13 in calcium imaging (hT2R13): respond specifically
response of hT2R61 in calcium imaging (hT2R61): respond specifically
EC50 (hT2R8 [5]; dose response, FIG. 6): 450 µM
dose response of hT2R8 (hT2R8 [5]; stable HEK-G16gust44 line): typical dose-response relationship
EC50 (hT2R54 [4]; dose response, FIG. 4, read-out: EC50, hT2R54): 0.38 µM
dose response of hT2R54 (hT2R54 [4]): typical dose-response relationship
taste detection threshold ([3]; in vivo): 24 mM
effective denatonium concentrations activating hT2R4 (hT2R4): 1.5 mM
